Converted amounts (≈) assume the structure as drawn. “And” between values parts separate entries of the source, which are not always exact repeats. Identical values can stand only once. Like-named read-outs stand apart in the source and are kept apart here.

In one data set the test system is M. tuberculosis. Set-up: method as in PMID 19299584, PMID 24500695. Conditions: antimycobacterial activity; cited from earlier work.
Data set [1] relates to M. tuberculosis H37Rv. Briefly: MIC against replicating M. tuberculosis H37Rv, microplate Alamar blue assay (MABA). In kind it is cell-based. Conditions: for MIC: Mycobacterium tuberculosis, H37RV. A general note: Resazurin is reduced to fluorescent resorufin, in cell work by metabolically active cells.
For another data set, the system named is Vero cells. Briefly: Cytotoxicity assay in Vero cells (MTT). Conditions: Chlorocebus sabaeus, 48 h, read-out: IC50 (Vero). It is filed as cell-based.
The subject of data set [2] is M. tuberculosis (H37Rv) in infected mouse J774A.1 macrophages. In kind it is cell-based.
For a further data set, the target named is Mt-DprE1 (Mycobacterium tuberculosis, UniProt P9WJF1). It is filed as biochemical, M. tuberculosis.
Data set [3] in a line: Hepatocyte stability assay, mouse. To be noted: male, mouse hepatocytes.
Data set [4] in a line: Hepatocyte stability assay, human. To be noted: human hepatocytes.
Data set [5] is described as follows: Pharmacokinetic studies in Balb/c mice. Conditions: for AUC(0-inf) at 24 h / AUC(0-t) at 24 h / Cmax at 24 h / MRT inf at 24 h / clearance at 24 h / half-life at 24 h / Tmax at 24 h / bioavailability at 24 h: male, Balb/c, mouse, in vivo.
A short description of data set [6]: Cytotoxicity assay in HepG2 cells (MTT). To be noted: human.
The target of a further data set is hERG K+ channel (Homo sapiens, UniProt Q12809). The experiment in a line: Inhibition of the hERG K+ channel, electrophysiology. For orientation: The hERG channel carries a current that helps repolarise heart muscle cells.
Data set [7] is described as follows: in vitro. To be noted: male, mouse, hepatocytes.
The nature of data set [8]: in vitro. To be noted: human, hepatocytes.
A short description of data set [9]: in vitro. To be noted: human.
The subject of data set [10] is M. tuberculosis H37Rv. Briefly: In vivo efficacy in acute TB infection model in Balb/c mice. Conditions: for log10 CFU/lung: oral, three weeks, INH 25 mg/kg; for Δlog10 CFU: in vivo.
Where [11] appears, read: supplementary CSV, same values as Tables 1-3, read-out: Minimal inhibit concentration.
Where [12] appears, read: against M. tuberculosis H37Rv, Tables 1-3, read-out: MIC.

hERG K+ channel, sequence (Q12809 whole entry): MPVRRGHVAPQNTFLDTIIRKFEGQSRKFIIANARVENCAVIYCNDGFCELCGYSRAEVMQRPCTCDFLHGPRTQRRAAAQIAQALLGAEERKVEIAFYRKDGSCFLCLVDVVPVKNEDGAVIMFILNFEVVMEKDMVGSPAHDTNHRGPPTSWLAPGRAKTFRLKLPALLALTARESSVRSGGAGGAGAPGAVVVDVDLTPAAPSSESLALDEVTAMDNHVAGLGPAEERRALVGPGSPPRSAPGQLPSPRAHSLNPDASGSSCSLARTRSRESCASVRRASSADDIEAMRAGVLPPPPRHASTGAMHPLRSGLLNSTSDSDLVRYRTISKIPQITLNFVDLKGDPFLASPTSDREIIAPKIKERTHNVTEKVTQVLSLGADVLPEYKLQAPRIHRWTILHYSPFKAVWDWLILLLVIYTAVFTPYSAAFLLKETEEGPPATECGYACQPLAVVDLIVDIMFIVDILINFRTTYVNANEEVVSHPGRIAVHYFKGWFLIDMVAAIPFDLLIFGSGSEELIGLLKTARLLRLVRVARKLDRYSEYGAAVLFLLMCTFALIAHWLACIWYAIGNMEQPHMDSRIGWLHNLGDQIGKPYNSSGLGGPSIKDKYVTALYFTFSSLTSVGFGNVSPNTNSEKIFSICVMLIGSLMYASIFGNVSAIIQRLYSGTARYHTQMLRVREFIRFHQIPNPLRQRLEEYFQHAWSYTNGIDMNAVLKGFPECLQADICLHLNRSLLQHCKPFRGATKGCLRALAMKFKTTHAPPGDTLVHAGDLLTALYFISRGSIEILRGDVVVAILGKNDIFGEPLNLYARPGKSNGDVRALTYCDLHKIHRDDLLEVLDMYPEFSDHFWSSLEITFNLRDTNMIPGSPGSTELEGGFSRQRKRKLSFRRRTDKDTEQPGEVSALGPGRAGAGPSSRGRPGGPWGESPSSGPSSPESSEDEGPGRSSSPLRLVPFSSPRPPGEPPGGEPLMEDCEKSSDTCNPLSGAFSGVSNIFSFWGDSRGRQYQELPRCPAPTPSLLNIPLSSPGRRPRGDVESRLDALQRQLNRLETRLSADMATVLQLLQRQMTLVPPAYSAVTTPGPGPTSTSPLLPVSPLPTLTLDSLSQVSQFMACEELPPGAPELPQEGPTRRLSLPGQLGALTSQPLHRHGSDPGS
Mt-DprE1, sequence (P9WJF1 whole entry, looked up): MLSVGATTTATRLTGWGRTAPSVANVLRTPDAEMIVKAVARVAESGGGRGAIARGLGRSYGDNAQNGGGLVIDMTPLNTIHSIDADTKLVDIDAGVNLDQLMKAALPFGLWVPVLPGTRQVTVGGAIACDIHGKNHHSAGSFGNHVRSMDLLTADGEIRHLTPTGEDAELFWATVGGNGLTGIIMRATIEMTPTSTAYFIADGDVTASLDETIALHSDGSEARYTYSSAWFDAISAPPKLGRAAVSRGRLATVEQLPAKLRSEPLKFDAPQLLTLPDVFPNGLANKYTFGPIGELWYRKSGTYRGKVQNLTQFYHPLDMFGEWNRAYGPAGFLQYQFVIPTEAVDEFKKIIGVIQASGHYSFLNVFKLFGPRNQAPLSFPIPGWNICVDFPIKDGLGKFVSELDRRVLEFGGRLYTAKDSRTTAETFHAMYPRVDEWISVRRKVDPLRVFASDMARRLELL

Turning to `C[C@H]1COC2(CCN(c3nc(=O)c4cc(C(F)(F)F)cc([N+](=O)[O-])c4s3)CC2)O1` [BTZ043], the MICs in the data set with M. tuberculosis is less than 0.016 µg/mL.
One may read the IC50 as the concentration at which inhibition is half-maximal. Usually melting point stands for the temperature of the solid-liquid transition. The half-life is the time in which the quantity being followed falls by half. By fraction remaining is commonly meant what is left of the initial amount, in per cent. Lower therefore signals more turnover. By AUC(0-inf) is commonly meant total exposure, with the tail of the curve extrapolated. High values mean more exposure, low ones less exposure. For orientation: AUC(0-t) means exposure summed from dosing to a finite time, without extrapolation to infinity. Higher therefore signals more exposure. The Cmax is the peak of the concentration-time curve. The MRT inf is a mean duration of stay, worked out from the concentration-time curve. Usually clearance stands for the volume of plasma or blood freed of the substance per unit of time. One may read the Tmax as the time at which the peak concentration occurs. What is called bioavailability is dose-corrected exposure relative to a reference, in per cent. Read a low bioavailability as poor availability. Consider `CCOC(=O)NC(=O)c1ccsc1NC(=O)c1ccc(C(=O)N2CCCCC2)c(F)c1` [Compound 24f, Ethyl (2-(3-Fluoro-4-(piperidine-1-carbonyl)benzamido)thiophene-3-carbonyl)carbamate], for which the melting point is 186 to 187 °C. In addition, in the data set with M. tuberculosis H37Rv [1] (H37Rv, Table 4), the “MIC H37Rv” value was found to be 0.020 µg/mL (≈ 0.0447 µM). The compound further came in with an MIC against M. tuberculosis H37Rv [1] (against M. tuberculosis H37Rv, Tables 1-3) of less than 0.016 µg/mL. The MIC with M. tuberculosis H37Rv [1] (setting [11]) was less than 0.016 µg/mL. The MIC in the data set with M. tuberculosis H37Rv [1] (Table 4, read-out: MIC H37Rv) was 0.02 to 0.12 µg/mL (≈ 0.0447 to 0.268 µM). Further, in the data set with Vero cells (Vero cells), the IC50 was more than 64 µg/mL. Moreover, the “log10 CFU/macrophages” value in [2] is 4.18 ± 0.04 log10 CFU and 4.41 ± 0.10 log10 CFU. Also, on Mt-DprE1, the “IC50 DprE1” value is 0.2 ± 0.04 µg/mL (≈ 0.447 µM). Moreover, in data set [3], the half-life at 1 µM is 43.7 min and the amount remaining at 0.5 h, 1 µM was found to be 62.1%. Also, in [4], the half-life at 1 µM is 38.1 min and the share remaining at 0.5 h, 1 µM was 58%. In [5] (iv, 5 mg/kg), this compound showed an AUC(0-inf) at 24 h of 184 ng·h/mL, an AUC(0-t) at 24 h of 183 ng·h/mL, a Cmax at 24 h of 1300 ng/mL and an MRT inf at 24 h of 7.8 min. In data set [5] (iv, 5 mg/kg), this compound had a clearance at 24 h of 479 mL/min/kg and a half-life at 24 h of 7.8 min. In [5] (po, 50 mg/kg), this compound came in with an area under the curve AUC(0-inf) at 24 h of 57.9 ng·h/mL, an exposure AUC(0-t) at 24 h of 41.9 ng·h/mL, a Cmax at 24 h of 25.4 ng/mL and an MRT inf at 24 h of 126 min. For the same compound, in data set [5] (po, 50 mg/kg), the Tmax at 24 h is 60 min, the bioavailability at 24 h came out at 2.3% and the half-life at 24 h was 102 min. The same compound showed an IC50 at 48 h in data set [6] of more than 64 µg/mL. Also, the IC50 against hERG K+ channel was more than 30 µM.
With `CCOC(=O)NC(=O)c1ccsc1NC(=O)c1ccc(C(=O)N2CCCCC2)s1` [Compound 24j, Ethyl (2-(5-(Piperidine-1-carbonyl)thiophene-2-carboxamido)thiophene-3-carbonyl)carbamate], the melting point was in the range of 175 to 176 °C. The MIC with M. tuberculosis H37Rv [1] (setting [12]) came to 0.14 µg/mL (≈ 0.321 µM). In addition, the MIC in the data set on M. tuberculosis H37Rv [1] (setting [11]) was 0.14 µg/mL (≈ 0.321 µM). Further, in the data set with M. tuberculosis H37Rv [1] (Table 4, read-out: MIC H37Rv), the MIC was 0.059 µg/mL (≈ 0.135 µM). The half-inhibitory concentration (IC50) with Vero cells (Vero) is more than 64 µg/mL. Moreover, the “IC50 DprE1” value against Mt-DprE1 amounted to 0.3 ± 0.1 µg/mL (≈ 0.689 µM). In the data set “in vitro [7]”, this compound displayed a half-life at 1 µM of 19.3 min and a fraction remaining at 0.5 h, 1 µM of 34%. In “in vitro [8]”, the half-life at 1 µM is 72.5 min and the share remaining at 0.5 h, 1 µM worked out at 75.1%. Further, the IC50 in the data set “in vitro [9]” is more than 64 µg/mL. Besides, on hERG K+ channel, the IC50 worked out at 28.3 µM.
Regarding `COC(=O)NC(=O)c1ccsc1NC(=O)c1ccc(C(=O)N2CCCCC2)cc1` [Compound 25a, Methyl (2-(4-(Piperidine-1-carbonyl)benzamido)thiophene-3-carbonyl)carbamate], the MIC in the data set on M. tuberculosis H37Rv [1] (setting [12]) was 0.19 µg/mL (≈ 0.457 µM). Further, in the data set on M. tuberculosis H37Rv [1] (setting [11]), the MIC turned out to be 0.19 µg/mL (≈ 0.457 µM). In the data set on Vero cells (Vero cells), the IC50 is more than 64 µg/mL. In addition, in data set [2], the “log10 CFU/macrophages” value was 4.77 ± 0.10 log10 CFU and 5.06 ± 0.03 log10 CFU; the “Δlog10 CFU” value was 0.75 log10 CFU and 0.46 log10 CFU. Moreover, the “log10 CFU/lung” value with M. tuberculosis H37Rv [10] (first column (batch with 25a; untreated 6.44), 25a 100 mg/kg) was 4.42 ± 0.45 log10 CFU. Besides, the “Δlog10 CFU” value with M. tuberculosis H37Rv [10] turned out to be 2.02 log10 CFU. Also, the “IC50 DprE1” value against Mt-DprE1 turned out to be 0.9 ± 0.2 µg/mL (≈ 2.17 µM). In data set [3], the half-life at 1 µM stood at 27.1 min and the share remaining at 0.5 h, 1 µM was determined as 46.5%. In [4], the half-life at 1 µM was determined as 20.3 min and the share remaining at 0.5 h, 1 µM was 35.9%. In addition, in data set [5] (iv, 5 mg/kg), the area under the curve AUC(0-inf) at 24 h is 833 ng·h/mL, the AUC(0-t) at 24 h turned out to be 830 ng·h/mL, the concentration peaked (Cmax at 24 h) at 4560 ng/mL and the MRT inf at 24 h was determined as 12 min. In addition, in data set [5] (iv, 5 mg/kg), the clearance at 24 h stood at 101 mL/min/kg and the half-life at 24 h is 15.6 min. In [5] (po, 50 mg/kg), the AUC(0-inf) at 24 h was 657 ng·h/mL, the AUC(0-t) at 24 h worked out at 651 ng·h/mL, the peak level (Cmax at 24 h) was 486 ng/mL and the mean residence time MRT inf at 24 h turned out to be 66 min. For the same compound, in data set [5] (po, 50 mg/kg), the time to peak (Tmax) at 24 h worked out at 34.8 min, the bioavailability at 24 h came to 7.9% and the half-life at 24 h was 51 min. The same compound gave an IC50 at 48 h in data set [6] of more than 64 µg/mL. Half-maximal inhibition against hERG K+ channel (IC50) was put at 22.6 µM.
Turning to `O=c1nc(N2CCN(CC3CCCCC3)CC2)sc2c([N+](=O)[O-])cc(C(F)(F)F)cc12` [PBTZ169], in the data set on M. tuberculosis H37Rv [1] (Table 4, read-out: MIC H37Rv), the MIC amounted to 0.0001 µg/mL (≈ 0.000219 µM). For the same compound, in the data set on M. tuberculosis, the MICs is less than 0.016 µg/mL.
For the compound `CCOC(=O)NC(=O)c1ccsc1NC(=O)c1nc2ccccc2s1` [TCA1, reference compound], the MIC in the data set on M. tuberculosis H37Rv [1] (setting [12]) is 0.48 µg/mL (≈ 1.28 µM). Also, the MIC in the data set with M. tuberculosis H37Rv [1] (Table 4, read-out: MIC H37Rv) came to 0.47 µg/mL (≈ 1.25 µM). For the same compound, the IC50 in the data set with Vero cells (Vero cells) was 31.8 µg/mL (≈ 84.6 µM). Besides, the “Δlog10 CFU” value with M. tuberculosis H37Rv [10] was 2.86 log10 CFU. For the same compound, in the data set with M. tuberculosis H37Rv [10] (second column (another batch, with TCA1; untreated 7.10), TCA1 100 mg/kg), the “log10 CFU/lung” value was determined as 4.24 ± 0.25 log10 CFU. At Mt-DprE1, the “IC50 DprE1” value is 0.1 ± 0.01 µg/mL (≈ 0.266 µM). In data set [3], this compound came in with a half-life at 1 µM of 85.3 min and an amount remaining at 0.5 h of 74.8%. In data set [4], this compound displayed a half-life at 1 µM of 5.97 min and a fraction remaining at 0.5 h, 1 µM of 3.1%. In addition, the “enhancement of oral bioavailability relative to 25a” value in data set [5] (Balb/c mice) is 5 fold. In data set [5] (iv, 5 mg/kg), this compound showed an AUC(0-inf) at 24 h of 7910 ng·h/mL, an AUC(0-t) at 24 h of 7910 ng·h/mL, a Cmax at 24 h of 14300 ng/mL and an MRT inf at 24 h of 23.4 min. In data set [5] (iv, 5 mg/kg), this compound gave a clearance at 24 h of 10.6 mL/min/kg and a half-life at 24 h of 28.2 min. In data set [5] (po, 50 mg/kg), this compound had an AUC(0-inf) at 24 h of 33700 ng·h/mL, an area under the curve AUC(0-t) at 24 h of 33700 ng·h/mL, a maximum concentration (Cmax) at 24 h of 10600 ng/mL and a mean residence time (MRT inf) at 24 h of 172 min. Moreover, in [5] (po, 50 mg/kg), the time of peak concentration (Tmax) at 24 h amounted to 60 min, the bioavailability at 24 h worked out at 42.6% and the half-life at 24 h is 131 min. For the same compound, the IC50 at 48 h in data set [6] was 46.1 µg/mL (≈ 123 µM). Moreover, inhibition on hERG K+ channel was half-maximal at 18.3 µM (IC50).

These data come from article PMC8154581, “Discovery of Novel Thiophene-arylamide Derivatives as DprE1 Inhibitors with Potent Antimycobacterial Activities” (Journal of Medicinal Chemistry, 2021).
